Laboratory results as given in US12509734B2, “Systems and methods to assess microbiomes and treatments thereof” (priority 2013, dated 2025).

Tested on: vaginal microbiota (PB-primer target groups)
Experiment: PB-qPCR microbial profiles of vaginal swabs of recurrent BV patients (Example 2)
Assay type: in vivo, human
Conditions: P4
Description: Sample processing, DNA extraction, and qPCR. Microbial gDNA was purified from swabs in 1-2 ml saline or lysis solution by a high SDS/alkaline lysis—phenol extraction protocol as described previously in Lambert and resuspended in 200 μL TE (10 mM Tris, pH 8, 1 mM EDTA). The lysed bacterial gDNA is stable for over one month at room temperature in lysis solution buffer (data not shown) and this buffer prevents changes in titer due to possible stability issues with different strains of bacteria in saline. An aliquot of purified DNA was assayed by qPCR with 18 universal and phylogenetic branch-inclusive (PB) primers and PCR conditions as described previously in Lambert. Additional primers, targeting the Enterococcus genus and its cytolysin gene CyILL, are provided in SEQ ID NOs: 92 and 95 (Enterococcus), and 93 and 96 (cytolysin gene). Each PB-primer targets a branch of the phylogenetic tree, from whole phyla to family or genus, and is far more inclusive than species-specific primers. Relative LB composition of the vaginal microbiome was determined by dividing the Lactobacillaceae titer by the sum of all PB-primers and by using the disclosed LB-blocker approach. Briefly, the LB-blocker approach uses the difference between the quantitative cycles (Cq) of two parallel qPCR reactions with universal primers targeting the 16S rRNA gene, when one of the reactions is in the presence of LB spp.-specific blocking oligomers (LB-blockers) that have been chemically modified to prevent extension and that partially overlap the universal primer binding site, effectively rendering the LB DNA “invisible” to the universal PCR, even when LB gDNA is present at great excess compared to non-LB gDNA, as is common in healthy and PT samples. PB-primers amplicons were selectively sequenced to confirm they were correctly targeted and to identify the dominant species. These were “cleaned” enzymatically as described in Lambert, and Sanger sequenced at Functional Biosciences (Madison, WI). Sequences were uploaded to Ribosomal Database Project II using its Pipeline function; species were identified based on phylogenetic trees constructed in Molecular Evolutionary Genetics Analysis (MEGA5) software.
Calculations. Cq values from qPCR reactions were converted to molecules per reaction by comparing sample Cq values to a standard curve from the same run of Cq values derived from dilutions of an amplicon of known target of known concentration. Molecules per reaction were converted to cells per swab, assuming an average of 5 ribosomal genes per cell and proportioned to the ratio of the volume of the sample used in the DNA prep and the amount of sample used in the qPCR reaction. Delta Cq (ΔCq) values of LB-blocked reaction pairs were calculated as Cq (blocked sample)−Cq (unblocked sample). Differences between patient groups were compared using the t test in (GraphPad software).

Compound: CCS(=O)(=O)CCn1c([N+](=O)[O-])cnc1C [tinidazole]
- Relative level of the 7 non-LB targets detected after treatment: under 0.1%
- Response to treatment (microbial profile): responded well
